# From patent US9701662B2, “Herbicidal compounds” (Syngenta Participations AG, priority 2014, dated 2017)
# What was measured:
# Format in all cases: in vivo
# Lolium perenne (LOLPE) [1] = experiment: Pre-emergence glasshouse herbicide test; settings: pre-emergence (sprayed after one day cultivation), 1000 g/h, evaluated after 13 days, five point scale
# Procedure: (§1) Seeds of a variety of test species are sown in standard soil in pots (Lolium perenne (LOLPE), Solanum nigrum (SOLNI), Amaranthus retoflexus (AMARE), Setaria faberi (SETFA), Echinochloa crus-galli (ECHCG), Ipomoea hederacea (IPOHE)). After cultivation for one day (pre-emergence) or after 8 days cultivation (post-emergence) under controlled conditions in a glasshouse (at 24/16° C., day/night; 14 hours light; 65% humidity), the plants are sprayed with an aqueous spray solution derived from the formulation of the technical active ingredient in acetone/water (50:50) solution containing 0.5% Tween 20 (polyoxyethelyene sorbitan monolaurate, CAS RN 9005-64-5). Compounds are applied at 1000 g/h. The test plants are then grown in a glasshouse under controlled conditions in a glasshouse (at 24/16° C., day/night; 14 hours light; 65% humidity) and watered twice daily. After 13 days for pre and post-emergence, the test is evaluated for the percentage damage caused to the plant. The biological activities are shown in the following table on a five point scale (5=80-100%; 4=60-79%; 3=40-59%; 2=20-39%; 1=0-19%).
# [2] = system: Echinochloa crus-galli (ECHCG); experiment: Pre-emergence glasshouse herbicide test; settings: pre-emergence (sprayed after one day cultivation), 1000 g/h, evaluated after 13 days, five point scale
# Procedure: as §1
# Solanum nigrum (SOLNI) [3] = experiment: Pre-emergence glasshouse herbicide test; settings: pre-emergence (sprayed after one day cultivation), 1000 g/h, evaluated after 13 days, five point scale
# Procedure: as §1
# Setaria faberi (SETFA) [4] = experiment: Pre-emergence glasshouse herbicide test; settings: pre-emergence (sprayed after one day cultivation), 1000 g/h, evaluated after 13 days, five point scale
# Procedure: as §1
# [5] = system: Ipomoea hederacea (IPOHE); experiment: Pre-emergence glasshouse herbicide test; settings: pre-emergence (sprayed after one day cultivation), 1000 g/h, evaluated after 13 days, five point scale
# Procedure: as §1
# [6] = system: Amaranthus retoflexus (AMARE); experiment: Pre-emergence glasshouse herbicide test; settings: pre-emergence (sprayed after one day cultivation), 1000 g/h, evaluated after 13 days, five point scale
# Procedure: as §1
# Lolium perenne (LOLPE) [7] = experiment: Post-emergence glasshouse herbicide test; settings: post-emergence (sprayed after 8 days cultivation), 1000 g/h, evaluated after 13 days, five point scale
# Procedure: as §1
# [8] = system: Echinochloa crus-galli (ECHCG); experiment: Post-emergence glasshouse herbicide test; settings: post-emergence (sprayed after 8 days cultivation), 1000 g/h, evaluated after 13 days, five point scale
# Procedure: as §1
# Solanum nigrum (SOLNI) [9] = experiment: Post-emergence glasshouse herbicide test; settings: post-emergence (sprayed after 8 days cultivation), 1000 g/h, evaluated after 13 days, five point scale
# Procedure: as §1
# Setaria faberi (SETFA) [10] = experiment: Post-emergence glasshouse herbicide test; settings: post-emergence (sprayed after 8 days cultivation), 1000 g/h, evaluated after 13 days, five point scale
# Procedure: as §1
# [11] = system: Ipomoea hederacea (IPOHE); experiment: Post-emergence glasshouse herbicide test; settings: post-emergence (sprayed after 8 days cultivation), 1000 g/h, evaluated after 13 days, five point scale
# Procedure: as §1
# [12] = system: Amaranthus retoflexus (AMARE); experiment: Post-emergence glasshouse herbicide test; settings: post-emergence (sprayed after 8 days cultivation), 1000 g/h, evaluated after 13 days, five point scale
# Procedure: as §1
SMILES,"percentage damage caused to the plant, LOLPE, PRE Application (Lolium perenne (LOLPE) [1])","percentage damage caused to the plant, ECHCG, PRE Application [2]","percentage damage caused to the plant, SOLNI, PRE Application (Solanum nigrum (SOLNI) [3])","percentage damage caused to the plant, SETFA, PRE Application (Setaria faberi (SETFA) [4])","percentage damage caused to the plant, IPOHE, PRE Application [5]","percentage damage caused to the plant, AMARE, PRE Application [6]","percentage damage caused to the plant, LOLPE, POST Application (Lolium perenne (LOLPE) [7])","percentage damage caused to the plant, ECHCG, POST Application [8]","percentage damage caused to the plant, SOLNI, POST Application (Solanum nigrum (SOLNI) [9])","percentage damage caused to the plant, SETFA, POST Application (Setaria faberi (SETFA) [10])","percentage damage caused to the plant, IPOHE, POST Application [11]","percentage damage caused to the plant, AMARE, POST Application [12]"
CCOc1c(C(=O)Nc2nnnn2C)nn(C)c(=O)c1C [Compound 1.009],3 (3=40-59%),4 (4=60-79%),5 (5=80-100%),3 (3=40-59%),5 (5=80-100%),5 (5=80-100%),4 (4=60-79%),5 (5=80-100%),5 (5=80-100%),5 (5=80-100%),5 (5=80-100%),5 (5=80-100%)
Cn1nnnc1NC(=O)c1nn(C)c(=O)c(-c2ccc(Cl)cc2)c1Cl [Compound 1.013],5 (5=80-100%),5 (5=80-100%),5 (5=80-100%),5 (5=80-100%),2 (2=20-39%),5 (5=80-100%),5 (5=80-100%),5 (5=80-100%),5 (5=80-100%),3 (3=40-59%),2 (2=20-39%),3 (3=40-59%)
CCOc1c(C(=O)Nc2nnnn2C)nn(C)c(=O)c1-c1ccccc1 [Compound 1.031],3 (3=40-59%),5 (5=80-100%),5 (5=80-100%),5 (5=80-100%),5 (5=80-100%),5 (5=80-100%),4 (4=60-79%),5 (5=80-100%),5 (5=80-100%),5 (5=80-100%),5 (5=80-100%),5 (5=80-100%)
Cn1nnnc1NC(=O)c1nn(C)c(=O)c(-c2ccccc2C(F)(F)F)c1Cl [Compound 1.037],5 (5=80-100%),5 (5=80-100%),5 (5=80-100%),5 (5=80-100%),5 (5=80-100%),5 (5=80-100%),5 (5=80-100%),5 (5=80-100%),5 (5=80-100%),5 (5=80-100%),5 (5=80-100%),5 (5=80-100%)
